Source: ChEMBL document CHEMBL1145220, “Design and synthesis of highly active Alzheimer's beta-secretase (BACE1) inhibitors, KMI-420 and KMI-429, with enhanced chemical stability” (Bioorg Med Chem Lett, 2005)
Numbered stars: 1 amine (or outer) side, 2 acyl side, 3 side chain; on linkers, the order of the positions; unused ones are H or OH. Square brackets hold non-standard residues; d marks the D form. Peptide text beside a SMILES is read from it. * marks the point of attachment. β3hPhe(2R-OH) = O=C([C@H](O)[C@H](Cc1ccccc1)N[*:1])[*:2]; Tetrazole5carbonyl = O=C(c1nn[nH]n1)*; Oxalyl = O=C(C(=O)[*:2])[*:1]; Dap = NC[C@H](N)C(=O)O

What was measured:
[1] = target: T1, Beta-secretase 1 (Homo sapiens, UniProt P56817); experiment: Inhibitory activity against beta-secretase 1 (BACE1)
T1 sequence (P56817 whole entry): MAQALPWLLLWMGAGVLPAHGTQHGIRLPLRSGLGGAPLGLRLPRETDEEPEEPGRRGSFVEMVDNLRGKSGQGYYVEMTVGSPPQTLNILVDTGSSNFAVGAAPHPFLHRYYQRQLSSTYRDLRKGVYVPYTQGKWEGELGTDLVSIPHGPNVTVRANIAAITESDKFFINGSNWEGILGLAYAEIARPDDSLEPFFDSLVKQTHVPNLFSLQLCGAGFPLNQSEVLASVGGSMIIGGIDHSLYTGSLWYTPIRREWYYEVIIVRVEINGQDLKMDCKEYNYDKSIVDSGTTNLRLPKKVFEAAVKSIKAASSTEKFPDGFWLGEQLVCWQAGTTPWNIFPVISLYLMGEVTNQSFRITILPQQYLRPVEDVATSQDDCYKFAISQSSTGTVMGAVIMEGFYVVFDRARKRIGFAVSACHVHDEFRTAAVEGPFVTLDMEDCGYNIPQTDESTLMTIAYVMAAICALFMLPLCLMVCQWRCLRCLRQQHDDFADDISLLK

[2] = target: T1, Beta-secretase 1; experiment: Inhibitory activity against beta-secretase 1 (BACE1) at 0.2 uM
[3] = target: T1, Beta-secretase 1; experiment: Inhibitory activity against beta-secretase 1 (BACE1) at 2 uM

Row | SMILES | IC50 [1] | inhibition [2] | inhibition [3]
1 | CC(C)C[C@H](NC(=O)[C@@H](NC(=O)[C@@H](N)CNC(=O)C(=O)O)C(C)C)C(=O)N[C@@H](Cc1ccccc1)[C@@H](O)C(=O)Nc1cc(C(=O)O)cc(C(=O)O)c1 | 4.7 nM | 96.7% | 99.8%
2 | CC(C)C[C@H](NC(=O)[C@@H](NC(=O)[C@@H](N)CNC(=O)c1nnn[nH]1)C(C)C)C(=O)N[C@@H](Cc1ccccc1)[C@@H](O)C(=O)Nc1cc(C(=O)O)cc(C(=O)O)c1 | 3.9 nM | – | –
3 | CC(C)C[C@H](NC(=O)[C@@H](NC(=O)[C@H](CN)NC(=O)c1nn[nH]n1)C(C)C)C(=O)N[C@@H](Cc1ccccc1)[C@@H](O)C(=O)N[C@@H](CC(=O)O)C(=O)N[C@@H](C)C(=O)N[C@@H](CCC(=O)O)C(=O)O (Tetrazole5carbonyl-[Dap]VL[β3hPhe(2R-OH)]DAE-OH) | – | – | 23.2%
4 | CC(C)C[C@H](NC(=O)[C@@H](NC(=O)[C@H](CN)NC(=O)C(=O)O)C(C)C)C(=O)N[C@@H](Cc1ccccc1)[C@@H](O)C(=O)N[C@@H](CC(=O)O)C(=O)N[C@@H](C)C(=O)N[C@@H](CCC(=O)O)C(=O)O (Oxalyl-[Dap]VL[β3hPhe(2R-OH)]DAE-OH) | – | – | 75.2%
5 | CC(C)C[C@H](NC(=O)[C@@H](NC(=O)[C@@H](N)CNC(=O)c1nn[nH]n1)C(C)C)C(=O)N[C@@H](Cc1ccccc1)[C@@H](O)C(=O)Nc1cccc(C(=O)O)c1 | – | 87.1% | 99%
6 | CC(C)C[C@H](NC(=O)[C@@H](NC(=O)[C@@H](N)CNC(=O)c1nn[nH]n1)C(C)C)C(=O)N[C@@H](Cc1ccccc1)[C@@H](O)C(=O)Nc1cc(C(=O)O)cc(C(=O)O)c1 | – | 98.1% | 100%
7 | CC(C)C[C@H](NC(=O)[C@@H](NC(=O)[C@H](CN)NC(=O)c1nn[nH]n1)C(C)C)C(=O)N[C@@H](Cc1ccccc1)[C@@H](O)C(=O)Nc1cccc(C(=O)O)c1 | – | – | 0%
8 | CC(C)C[C@H](NC(=O)[C@@H](NC(=O)[C@H](CN)NC(=O)C(=O)O)C(C)C)C(=O)N[C@@H](Cc1ccccc1)[C@@H](O)C(=O)Nc1cccc(C(=O)O)c1 | – | 58.6% | 87.9%
9 | CC(C)C[C@H](NC(=O)[C@@H](NC(=O)[C@@H](N)CNC(=O)C(=O)O)C(C)C)C(=O)N[C@@H](Cc1ccccc1)[C@@H](O)C(=O)N[C@@H](CC(=O)O)C(=O)N[C@@H](C)C(=O)N[C@@H](CCC(=O)O)C(=O)O (H-[Dap](Oxalyl)VL[β3hPhe(2R-OH)]DAE-OH) | 84 nM | 57.6% | 96.7%
10 | CC(C)C[C@H](NC(=O)[C@@H](NC(=O)[C@@H](N)CNC(=O)c1nnn[nH]1)C(C)C)C(=O)N[C@@H](Cc1ccccc1)[C@@H](O)C(=O)Nc1cccc(C(=O)O)c1 | 8.2 nM | – | –
11 | CC(C)C[C@H](NC(=O)[C@@H](NC(=O)[C@@H](N)CNC(=O)C(=O)O)C(C)C)C(=O)N[C@@H](Cc1ccccc1)[C@@H](O)C(=O)Nc1cccc(C(=O)O)c1 | 16 nM | 85.5% | 98.4%
12 | CC(C)C[C@H](NC(=O)[C@@H](NC(=O)[C@@H](N)CNC(=O)c1nn[nH]n1)C(C)C)C(=O)N[C@@H](Cc1ccccc1)[C@@H](O)C(=O)N[C@@H](CC(=O)O)C(=O)N[C@@H](C)C(=O)N[C@@H](CCC(=O)O)C(=O)O (H-[Dap](Tetrazole5carbonyl)VL[β3hPhe(2R-OH)]DAE-OH) | – | 73.1% | 93%
